Source: patent US12473249B2, “Aromatic compounds and pharmaceutical uses thereof” (BASF AS, priority 2018, dated 2025)
Marks after values point to notes of the source that are not given here.

How the values were obtained:
Assay type in all cases: in vivo, mouse
[1] = Relative bodyweight in ob/ob AMLN mice; conditions: 0.3 mmol/kg bw day, 4 weeks treatment, FIG. 11
Method: ob/ob mice are consistently fibrosis (liver) prone when cholesterol (2%) and 40% fat (containing 18% trans-fatty acids) and 20% fructose are added to a high-caloric diet (i.e., AMLN diet). ob/ob mice on AMLN diet (termed ‘ob/ob AMLN mice’) develop steatohepatitis and fibrosis within a shorter timeframe (<12 weeks) compared with wild-type C57BL/6 mice (AMLN mice) fed the same diet. ob/ob AMLN mice provide an obese diet-induced model of NASH that also allows the study of effects on glycemic control.
Thirty male ob/ob mice (5 weeks old) were fed the AMLN diet for 15 weeks then randomised into 3 groups of 10 mice/group to receive Compound B or Compound A (both at 0.3 mmol/kg bw day) or no treatment (vehicle) for a further 4 weeks. Assessment of the hepatic expression of key genes regulating plasma lipid concentrations (LDLr), hepatic fibrosis (collA1), bile acid transport/re-uptake (Slc51b and Slc10a2) and inflammation (CD68) was made via RNA sequencing at 4 weeks. To assess the effects of Compound B and Compound A on glycemic control, an oral glucose tolerance test (OGTT) was also performed at 3 weeks. An additional group of mice (n=5) were also treated with a PPAR-γ agonist (pioglitazone, 30 mg/kg bw day) was also included to compare effects upon bodyweight.

[2] = test system: C57BL/6 mice; assay: Hepatic steatosis and organ mass in oral PN diet fed C57BL/6 mice, subsequent experiment at two dosages (H&E); conditions: 19 days
Text: Male C57BL/6 mice, 6 to 8 weeks old at initiation of the experiments, were used for all experimental groups. Mice were fed either an ad libitum diet of standard rodent chow (calorie composition: 26% protein, 14% fat, 60% carbohydrates) and water or a parenteral nutrition (PN) solution that mimics the PN diet used in neonatal intensive care units. The PN solution was a fat-free, high-carbohydrate liquid diet (20% dextrose, 2% essential and nonessential amino acids, 0.2% pediatric trace elements, 0.5% pediatric multivitamins, 30 mEq of sodium, 20 mEq of potassium, 15 mEq of calcium (as calcium gluconate), 10 mEq of magnesium, 10 mEq of phosphate, 5 mEq of acetate, and 30 mEq of chloride per liter) administered as a single 50 mL bottle per cage which mice consumed ad libitum. […] Prince et al., JPEN J Parenter Enteral Nutr., 2014; 38(5): 608-616.
In a subsequent experiment, both Compound A and Compound B were tested at two dosages. The results of this experiment are described in Example 15.
Male C57BL/6 mice, 6 to 8 weeks old at initiation of the experiments, were used for all experimental groups. One group was fed an ad libitum diet of standard rodent chow and water. The group fed standard rodent chow received no additional treatments during the experimental period and served as a negative control group. Seven other groups (10 mice per group) were fed the PN solution described above ad libitum.
Of the seven groups that received the PN diet, each group received one of the following orogastric protocols administered every other day over 19 days: • (1) Saline: saline solution administered isovolumetric with the Omegaven® group; • (2) MCT: medium-chain triglyceride oil (MCT) (Nestle™ HealthCare Nutrition, Florham Park, NJ), at a dose of 7.4 g of fat/kg body weight; • (3) Omegaven®: Omegaven® (commercial fish oil lipid emulsion) at a dose of 2.4 g fat/kg body weight; • (4) Compound A LOW: Compound A at a dose of 0.3 mmol/kg bw day (diluted in MCT to 0.0375 mmol/mL, resulting in administration of 7.4 g of MCT/kg weight); • (5) Compound A HI: Compound A at a dose of 0.6 mmol/kg bw day (diluted in MCT to 0.075 mmol/mL, resulting in administration of 7.4 g of MCT/kg weight); • (6) Compound B LOW: Compound B at a dose of 0.3 mmol/kg bw day (diluted in MCT to 0.0375 mmol/mL, resulting in administration of 7.4 g of MCT/kg weight); and • (7) Compound B HI: Compound B at a dose of 0.6 mmol/kg bw day (diluted in MCT to 0.075 mmol/mL, resulting in administration of 7.4 g of MCT/kg weight).
After 19 days of treatment, organs were harvested, including the liver, kidney, and spleen, which were analyzed for relative weight between each group. Livers were also fixed and frozen on dry ice, then stored at −80° C. for hematoxylin and eosin (H&E) stain analysis and Oil Red O analysis.

[3] = test system: APOE*3Leiden mice; assay: Plasma lipids in high-fat diet fed APOE*3Leiden mice
Method: The APOE*3Leiden mouse expresses a variant of the human apolipoprotein E3 (APOE3), the APOE*3Leiden, in addition to the human apolipoprotein C1 (APOC1).
Studies were performed in APOE*3Leiden mice (13-15 weeks old) placed on a semi-synthetic high fat diet (24% fat w/w) with 0.25% cholesterol w/w. After a 4-week run-in period, mice were sub-divided into groups of 5 mice each and administration of Compound A, Compound B, or vehicle alone was started. Both Compound B and Compound A were administered at a dose of 0.3 mmol/kg bw/day via diet. Sunflower oil (10 ml v/w) was used as a vehicle to facilitate mixing. After 4 weeks of treatment mice were sacrificed by C02 asphyxiation and plasma cholesterol and triglycerides were measured using commercially available kits (Roche*/Hitachi©).
In a further study, performed as described above, the effects of Compound A, Compound B, and Compound C were compared with the effects of Reference Compound 1 ((Z)-3-(pent-2-en-1-yloxy)benzoic acid) and Reference Compound 2 ((Z)-4-(pent-2-en-1-yloxy)benzoic acid) on triglyceride levels. […] The results of this study are described in Example 17.

[4] = oral PN diet, high and low dosages, FIG. 18
[5] = high-fat high-cholesterol diet, 4 weeks treatment
[6] = high-fat high-cholesterol diet, 4 weeks treatment, dose 0.1 mmol/kg bw/day

body mass vs chow-fed or PN-fed saline groups [2, 4]: not significantly different | liver/body mass vs chow-fed or PN-fed saline groups [2, 4]: not significantly different | spleen/body mass vs chow-fed or PN-fed saline groups [2, 4]: not significantly different
SMILES: CCCCCOc1cccc(C(=O)O)c1C [Compound A, 2-methyl-3-(pentyloxy)benzoic acid]
relative bodyweight versus vehicle [1]: significantly decreased | development of steatosis induced by an oral PN diet (H&E stain in isolated liver sections) ([2]; 0.3 and 0.6 mmol/kg bw day in MCT by orogastric gavage, FIGS. 14-17): prevented the development of steatosis | triglyceride levels over 4 weeks ([3]; further study with reference compounds, 0.3 mmol/kg bw/day, FIG. 31): significantly reduced | plasma TG versus vehicle [3, 5]: significantly reduce | total plasma cholesterol versus vehicle [3, 5]: significantly reduce | Reduction in plasma TG vs control (%) [3, 6]: 79*** % | Reduction in plasma cholesterol vs control (%) [3, 6]: 30*** %
